Assay results taken from PubChem BioAssay (NCI).
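These data come from cells grown in 96-well plates and exposed to compound for 48 hours at five concentrations. Abbreviation: GI50, concentration required for 50% inhibition of growth. TGI marks complete inhibition of growth.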

Assays:
Test in all cases: inhibition of tumour cell growth, NCI panel, 48 h
COLO 205 colon = test system: COLO 205 colon
SF-295 CNS = test system: SF-295 CNS
OVCAR-5 ovarian = test system: OVCAR-5 ovarian
TK-10 renal = test system: TK-10 renal
A498 renal = test system: A498 renal
UACC-62 melanoma = test system: UACC-62 melanoma
HOP-92 NSCLC = test system: HOP-92 NSCLC
CAKI-1 renal = test system: CAKI-1 renal
SK-OV-3 ovarian = test system: SK-OV-3 ovarian
IGROV1 ovarian = test system: IGROV1 ovarian
PC-3 prostate = test system: PC-3 prostate
DU-145 prostate = test system: DU-145 prostate
SNB-75 CNS = test system: SNB-75 CNS
SK-MEL-28 melanoma = test system: SK-MEL-28 melanoma
NCI-H226 lung = test system: NCI-H226 lung
OVCAR-8 ovarian = test system: OVCAR-8 ovarian
HCT-15 colon = test system: HCT-15 colon
HS 578T breast = test system: HS 578T breast
RPMI-8226 leukemia = test system: RPMI-8226 leukemia
SW-620 colon = test system: SW-620 colon
T-47D breast = test system: T-47D breast
HOP-62 NSCLC = test system: HOP-62 NSCLC
A549 NSCLC = test system: A549 NSCLC
KM12 colon = test system: KM12 colon
786-0 renal = test system: 786-0 renal
NCI/ADR-RES ovarian = test system: NCI/ADR-RES ovarian
MALME-3M melanoma = test system: MALME-3M melanoma
SK-MEL-2 melanoma = test system: SK-MEL-2 melanoma
HT29 colon = test system: HT29 colon
SNB-19 CNS = test system: SNB-19 CNS
MOLT-4 leukemia = test system: MOLT-4 leukemia
NCI-H23 lung = test system: NCI-H23 lung
UO-31 renal = test system: UO-31 renal
RXF 393 renal = test system: RXF 393 renal
MCF7 breast = test system: MCF7 breast
M14 melanoma = test system: M14 melanoma
OVCAR-4 ovarian = test system: OVCAR-4 ovarian
SF-539 CNS = test system: SF-539 CNS
NCI-H522 lung = test system: NCI-H522 lung
ACHN renal = test system: ACHN renal
HCT-116 colon = test system: HCT-116 colon
MDA-MB-435 = test system: MDA-MB-435
EKVX NSCLC = test system: EKVX NSCLC
HL-60(TB) leukemia = test system: HL-60(TB) leukemia
NCI-H460 lung = test system: NCI-H460 lung
K-562 leukemia = test system: K-562 leukemia
OVCAR-3 ovarian = test system: OVCAR-3 ovarian
SN12C renal = test system: SN12C renal
MDA-MB-231 breast = test system: MDA-MB-231 breast
LOX IMVI melanoma = test system: LOX IMVI melanoma
U251 CNS = test system: U251 CNS
SF-268 CNS = test system: SF-268 CNS
BT-549 breast = test system: BT-549 breast
CCRF-CEM leukemia = test system: CCRF-CEM leukemia
HCC-2998 colon = test system: HCC-2998 colon
UACC-257 melanoma = test system: UACC-257 melanoma
SK-MEL-5 melanoma = test system: SK-MEL-5 melanoma

CN(C)CCCn1c2c(c3ccccc3c1=O)C(=O)c1ccccc1-2
GI50 (COLO 205 colon): 7.52 µM
TGI (COLO 205 colon): 24.8 µM
GI50 (SF-295 CNS): 1.12 µM
TGI (SF-295 CNS): 3.74 µM
GI50 (OVCAR-5 ovarian): 3.06 µM
TGI (OVCAR-5 ovarian): 14 µM
GI50 (TK-10 renal): 1.67 µM
TGI (TK-10 renal): 11.3 µM
GI50 (A498 renal): 5.99 µM
TGI (A498 renal): 22.1 µM
GI50 (UACC-62 melanoma): 0.516 µM
TGI (UACC-62 melanoma): 1.96 µM
GI50 (HOP-92 NSCLC): 0.421 µM
TGI (HOP-92 NSCLC): 5.59 µM
GI50 (CAKI-1 renal): 0.583 µM
TGI (CAKI-1 renal): 2.44 µM
GI50 (SK-OV-3 ovarian): 4.14 µM
TGI (SK-OV-3 ovarian): 73.8 µM
GI50 (IGROV1 ovarian): 2.29 µM
TGI (IGROV1 ovarian): > 100 µM
GI50 (PC-3 prostate): 2.27 µM
TGI (PC-3 prostate): 13.7 µM
GI50 (DU-145 prostate): 1.33 µM
TGI (DU-145 prostate): 8.54 µM
GI50 (SNB-75 CNS): 14.2 µM
TGI (SNB-75 CNS): 33.1 µM
GI50 (SK-MEL-28 melanoma): 3.97 µM
TGI (SK-MEL-28 melanoma): 18.3 µM
GI50 (NCI-H226 lung): 1.18 µM
TGI (NCI-H226 lung): 2.74 µM
GI50 (OVCAR-8 ovarian): 0.336 µM
TGI (OVCAR-8 ovarian): 1.34 µM
GI50 (HCT-15 colon): 1.85 µM
TGI (HCT-15 colon): 12 µM
GI50 (HS 578T breast): 8.06 µM
TGI (HS 578T breast): 38 µM
GI50 (RPMI-8226 leukemia): 1.4 µM
TGI (RPMI-8226 leukemia): 5.79 µM
GI50 (SW-620 colon): 0.771 µM
TGI (SW-620 colon): 10.8 µM
GI50 (T-47D breast): 3.01 µM
TGI (T-47D breast): 14.8 µM
GI50 (HOP-62 NSCLC): 1.74 µM
TGI (HOP-62 NSCLC): 6.61 µM
GI50 (A549 NSCLC): 0.65 µM
TGI (A549 NSCLC): 3.14 µM
GI50 (KM12 colon): 3.6 µM
TGI (KM12 colon): 17.7 µM
GI50 (786-0 renal): 2.47 µM
TGI (786-0 renal): 14.2 µM
GI50 (NCI/ADR-RES ovarian): 1.85 µM
TGI (NCI/ADR-RES ovarian): 7.13 µM
GI50 (MALME-3M melanoma): 2.31 µM
TGI (MALME-3M melanoma): 5.71 µM
GI50 (SK-MEL-2 melanoma): 13.1 µM
TGI (SK-MEL-2 melanoma): > 100 µM
GI50 (HT29 colon): 0.749 µM
TGI (HT29 colon): 4.51 µM
GI50 (SNB-19 CNS): 2.2 µM
TGI (SNB-19 CNS): 21.9 µM
GI50 (MOLT-4 leukemia): 0.276 µM
TGI (MOLT-4 leukemia): 0.746 µM
GI50 (NCI-H23 lung): 1.75 µM
TGI (NCI-H23 lung): 8.39 µM
GI50 (UO-31 renal): 2.5 µM
TGI (UO-31 renal): 23.5 µM
GI50 (RXF 393 renal): 5.38 µM
TGI (RXF 393 renal): 49.3 µM
GI50 (MCF7 breast): 0.554 µM
TGI (MCF7 breast): 12.2 µM
GI50 (M14 melanoma): 3.66 µM
TGI (M14 melanoma): 17.1 µM
GI50 (OVCAR-4 ovarian): 3.15 µM
TGI (OVCAR-4 ovarian): 48.9 µM
GI50 (SF-539 CNS): 1.86 µM
TGI (SF-539 CNS): 9.14 µM
GI50 (NCI-H522 lung): 3.62 µM
TGI (NCI-H522 lung): > 100 µM
GI50 (ACHN renal): 0.507 µM
TGI (ACHN renal): 2.15 µM
GI50 (HCT-116 colon): 0.578 µM
TGI (HCT-116 colon): 4.34 µM
GI50 (MDA-MB-435): 2.82 µM
TGI (MDA-MB-435): 12 µM
GI50 (EKVX NSCLC): 11.3 µM
TGI (EKVX NSCLC): 36.8 µM
GI50 (HL-60(TB) leukemia): 1.74 µM
TGI (HL-60(TB) leukemia): 3.85 µM
GI50 (NCI-H460 lung): 0.52 µM
TGI (NCI-H460 lung): 10.5 µM
GI50 (K-562 leukemia): 1.9 µM
TGI (K-562 leukemia): 8.01 µM
GI50 (OVCAR-3 ovarian): 1.67 µM
TGI (OVCAR-3 ovarian): 6.79 µM
GI50 (SN12C renal): 0.907 µM
TGI (SN12C renal): 3.07 µM
GI50 (MDA-MB-231 breast): 1.74 µM
TGI (MDA-MB-231 breast): 5.09 µM
GI50 (LOX IMVI melanoma): 0.937 µM
TGI (LOX IMVI melanoma): 3.19 µM
GI50 (U251 CNS): 1.47 µM
TGI (U251 CNS): 6.37 µM
GI50 (SF-268 CNS): 2.71 µM
TGI (SF-268 CNS): 15.2 µM
GI50 (BT-549 breast): 5.53 µM
TGI (BT-549 breast): 19.9 µM
GI50 (CCRF-CEM leukemia): 1.44 µM
TGI (CCRF-CEM leukemia): 28.9 µM

COc1cc2c(cc1C)NC(=O)/C2=C/c1cccnc1
TGI (COLO 205 colon): > 47.9 µM
TGI (SF-295 CNS): 40.5 µM
TGI (OVCAR-5 ovarian): 27.9 µM
TGI (TK-10 renal): 31.1 µM
TGI (A498 renal): 24.6 µM
GI50 (UACC-62 melanoma): 10.1 µM
TGI (UACC-62 melanoma): 25.9 µM
TGI (HCC-2998 colon): 8.28 µM
TGI (HOP-92 NSCLC): 41.9 µM
TGI (CAKI-1 renal): 30.3 µM
TGI (SK-OV-3 ovarian): 34.3 µM
GI50 (IGROV1 ovarian): 19.5 µM
TGI (IGROV1 ovarian): > 100 µM
TGI (PC-3 prostate): > 64.6 µM
TGI (DU-145 prostate): 27.3 µM
TGI (SNB-75 CNS): > 100 µM
TGI (SK-MEL-28 melanoma): > 100 µM
GI50 (NCI-H226 lung): 10.9 µM
TGI (NCI-H226 lung): 24.3 µM
TGI (OVCAR-8 ovarian): > 58.7 µM
TGI (HCT-15 colon): > 78 µM
TGI (HS 578T breast): 97.2 µM
GI50 (RPMI-8226 leukemia): 12.7 µM
TGI (RPMI-8226 leukemia): 79.1 µM
TGI (SW-620 colon): 53.1 µM
TGI (T-47D breast): 8.13 µM
TGI (HOP-62 NSCLC): 30.5 µM
TGI (A549 NSCLC): > 55.3 µM
TGI (KM12 colon): 29.1 µM
TGI (786-0 renal): > 52.5 µM
TGI (NCI/ADR-RES ovarian): 42 µM
TGI (MALME-3M melanoma): > 52.9 µM
TGI (SK-MEL-2 melanoma): 46.5 µM
TGI (HT29 colon): > 100 µM
TGI (UACC-257 melanoma): 27.7 µM
TGI (SNB-19 CNS): 32.1 µM
TGI (MOLT-4 leukemia): 24.1 µM
TGI (NCI-H23 lung): 24.8 µM
TGI (UO-31 renal): 26.2 µM
TGI (RXF 393 renal): 25 µM
TGI (MCF7 breast): 32.3 µM
TGI (M14 melanoma): 37.5 µM
TGI (OVCAR-4 ovarian): 56.4 µM
TGI (SF-539 CNS): > 84.7 µM
TGI (NCI-H522 lung): 33.4 µM
TGI (ACHN renal): > 56.8 µM
TGI (HCT-116 colon): 31.2 µM
TGI (SK-MEL-5 melanoma): 25.3 µM
TGI (MDA-MB-435): 86.1 µM
TGI (EKVX NSCLC): 47 µM
TGI (HL-60(TB) leukemia): 26.2 µM
TGI (NCI-H460 lung): 35.4 µM
TGI (K-562 leukemia): 40.2 µM
TGI (OVCAR-3 ovarian): 33.3 µM
TGI (SN12C renal): 29.5 µM
GI50 (MDA-MB-231 breast): 9.27 µM
TGI (MDA-MB-231 breast): 27.5 µM
TGI (LOX IMVI melanoma): > 53.8 µM
TGI (U251 CNS): > 52.5 µM
TGI (SF-268 CNS): 41 µM
TGI (BT-549 breast): > 82 µM
TGI (CCRF-CEM leukemia): > 56.8 µM
